Measurements as given in US20040077878A1, “Process for the preparation of tri-nitrogen containing heteroaryl-diamine derivatives useful as pharmaceutical agents and methods of producing pharmaceutical agents” (priority 2002, published 2004).

Molecular target: IMPDH II enzyme (Homo sapiens, UniProt P12268)
Test: assay against the IMPDH II enzyme
Type: biochemical
Description: The present invention enables an efficient and effective production of 1,2,4-triazole-3,5-diamine and/or 1,3,5-triazine-2,4-diamine derivatives, which are useful as pharmaceutical agents and/or as components of pharmaceutical agents, particularly inhibitors of IMPDH, anti-hypertensive agents, and neurokinin receptor antagonists, from readily-available starting compounds. This process provides a convenient synthesis of the target compound from a substituted isothiocyanate, hydrogencyanamide salt, a substituted hydrazine and/or a substituted amidine in moderate to good yield. […] Additionally, tri-nitrogen containing heteroaryl-diamine derivatives of formula (I), 1,2,4-triazole-3,5-diamines of formula (A) and/or (B) and 1,3,5-triazine-2,4-diamines of formula (C) may be readily coupled to a pharmacological core component to provide pharmaceutically active agents, such as, for examples, the compounds described in WO 00/25780, Dunstan et al., Tetrahedron Lett., Vol. 39, (1998), at pp. 7983-7986, U.S. Pat. No. 6,436,928, U.S. patent application No. 20020038030, U.S. Pat. No. 6,172,077 B1, U.S. Pat. No. 5,232,938, U.S. Pat. No. 4,569,933, WO 01/74806A1, WO 01/56987 A1, and EP 1107962 A1, incorporated herein by reference.

Compound: COc1cc(Nc2nc(N)n(-c3ccccc3)n2)ccc1-c1cnco1 [Example 13]
- IC50: 150 nM
